Test results as given in patent publication US20220218852A1, “NOVEL RADIOLABELLED CXCR4-TARGETING COMPOUNDS FOR DIAGNOSIS AND THERAPY” (PROVINCIAL HEALTH SERVICES AUTHORITY, priority 2019, published 2022).
Like-named read-outs stand apart in the source and are kept apart here. Positions of bridges follow the written chain, without caps; N, C: chain ends. Non-standard residues stand in square brackets, D forms with d. Residues, ends and D or L forms follow the SMILES beside them. Groups on a side chain read outwards from the residue. *: point of attachment. DOTA = O=C(O)CN1CCN(CC(=O)O)CCN(CC(=O)*)CCN(CC(=O)O)CC1; 2Nal = N[C@@H](Cc1ccc2ccccc2c1)C(=O)O; Lys(iPr) = CC(C)NCCCC[C@H](N)C(=O)O

Experiments:
[1] = Biodistribution in Jeko1 tumor-bearing mice; assay type: in vivo; conditions: male, NOD.Cg-Rag1^tm1MomII2rg^tm1Wjl/SzJ (NRG), mouse, iv, total radioactivity
Method: (§1) For Daudi, Z138, GRANTA519 and Jeko1 xenografts, male NOD.Cg-Rag1^tm1MomII2rg^tm1Wjl/SzJ (NRG) mice were subcutaneously inoculated on the left flank with 5×10^6 cells (100 μL; 1:1 ratio of PBS/Matrigel) and tumors were grown to a size of 200-500 mm^3. For PC-3 xenografts, male NOD.Cg-Rag1^tm1MomII2rg^tm1Wjl/SzJ (NRG) mice were subcutaneously inoculated on the left flank with 5×10^6 PC-3 cells (100 μL; 1:1 ratio of PBS/Matrigel) and tumors were grown to a size of 200-400 mm^3.
(§2) The mice were euthanized via CO2 inhalation while anesthetized with isoflurane. Tissues were harvested, washed in PBS, blotted dry, weighed, and measured on a Hidex AMG Automatic Gamma Counter.

[2] = test system: Jeko1 mantle cell lymphoma xenografts; assay: Biodistribution in Jeko1 tumor-bearing mice; assay type: in vivo
Method: as §1, §2

[3] = test system: PC3 prostate adenocarcinoma xenografts; assay: Biodistribution in PC3 tumor-bearing mice; assay type: in vivo
Method: as §1, §2

[4] = In vivo stability (plasma radio-HPLC) in male NRG mice; conditions: 5 mins
Text: Radiolabeled peptides (10-30 MBq) was intravenously injected into male NRG mice. After a 5-min, 24-hour or 120-hour uptake period, mice were sedated/euthanized, and blood was collected. The plasma was isolated and analyzed with analytical radio-HPLC following published procedures (Lin et al., Cancer Res. 2015, 75:387-393).

[5] = 1 h blocked (7.5 μg LY2510924 i.p.)

For `CC(C)NCCCC[C@@H]1NC(=O)[C@H](Cc2ccc(O)cc2)NC(=O)[C@H](Cc2ccccc2)NC(=O)CC[C@H](C(=O)N[C@@H](CCCCNC(C)C)C(=O)N[C@@H](CCCCNC(=O)[C@H](CCC(=O)O)NC(=O)[C@H](CCC(=O)O)NC(=O)[C@H](CCC(=O)O)NC(=O)CN2CCN(CC(=O)O)CCN(CC(=O)O)CCN(CC(=O)O)CC2)C(N)=O)NC(=O)CNC(=O)[C@H](Cc2ccc3ccccc3c2)NC(=O)[C@@H](CCCNC(=N)N)NC1=O` [[^68Ga]Ga-BL02, metal not drawn] (FY[Lys(iPr)][dR][2Nal]G[dE][Lys(iPr)]K([Glu-Glu-Glu-DOTA])-NH2; lactam N-7), the tissue uptake at 1 h ([1]; fat, 1 h blocked (7.5 μg LY2510924 i.p.), read-out: Biodistribution Fat) was 0.14 %ID/g, the tissue uptake at 1 h ([1]; heart, 1 h, read-out: Biodistribution Heart) was 0.13 %ID/g and the tissue uptake at 1 h ([1]; heart, 1 h blocked (7.5 μg LY2510924 i.p.), read-out: Biodistribution Heart) was 0.35 %ID/g. It also gave a tissue uptake at 1 h ([1]; intestine, 1 h, read-out: Biodistribution Intestine) of 0.19 %ID/g, a tissue uptake at 1 h ([1]; intestine, 1 h blocked (7.5 μg LY2510924 i.p.), read-out: Biodistribution Intestine) of 0.44 %ID/g and a tissue uptake at 1 h ([1]; kidney, 1 h, read-out: Biodistribution Kidney) of 3.32 %ID/g. The tissue uptake at 1 h ([1]; kidney, 1 h blocked (7.5 μg LY2510924 i.p.), read-out: Biodistribution Kidney) was 8.91 %ID/g, the tissue uptake at 1 h ([1]; liver, 1 h, read-out: Biodistribution Liver) was 0.77 %ID/g and the tissue uptake at 1 h ([1]; liver, 1 h blocked (7.5 μg LY2510924 i.p.), read-out: Biodistribution Liver) was 0.55 %ID/g. It also gave a tissue uptake at 1 h ([1]; lung, 1 h, read-out: Biodistribution Lung) of 0.74 %ID/g, a tissue uptake at 1 h ([1]; lung, 1 h blocked (7.5 μg LY2510924 i.p.), read-out: Biodistribution Lung) of 1.05 %ID/g and a tissue uptake at 1 h ([1]; muscle, 1 h, read-out: Biodistribution Muscle) of 0.06 %ID/g. The tissue uptake at 1 h ([1]; muscle, 1 h blocked (7.5 μg LY2510924 i.p.), read-out: Biodistribution Muscle) was 0.2 %ID/g, the tissue uptake at 1 h ([1]; pancreas, 1 h, read-out: Biodistribution Pancreas) was 0.09 %ID/g and the tissue uptake at 1 h ([1]; pancreas, 1 h blocked (7.5 μg LY2510924 i.p.), read-out: Biodistribution Pancreas) was 0.26 %ID/g. For the same compound, the tissue uptake at 1 h ([1]; spleen, 1 h, read-out: Biodistribution Spleen) was 0.7 %ID/g, the tissue uptake at 1 h ([1]; spleen, 1 h blocked (7.5 μg LY2510924 i.p.), read-out: Biodistribution Spleen) was 0.57 %ID/g and the tissue uptake at 1 h ([1]; stomach, 1 h, read-out: Biodistribution Stomach) was 0.06 %ID/g. For the same compound, the tissue uptake at 1 h ([1]; stomach, 1 h blocked (7.5 μg LY2510924 i.p.), read-out: Biodistribution Stomach) was 0.13 %ID/g, the tissue uptake at 1 h ([1]; testes, 1 h, read-out: Biodistribution Testes) was 0.14 %ID/g and the tissue uptake at 1 h ([1]; testes, 1 h blocked (7.5 μg LY2510924 i.p.), read-out: Biodistribution Testes) was 0.29 %ID/g. For the same compound, the tissue uptake at 1 h ([1]; whole blood, 1 h, read-out: Biodistribution Blood) was 0.38 %ID/g, the tissue uptake at 1 h ([1]; whole blood, 1 h blocked (7.5 μg LY2510924 i.p.), read-out: Biodistribution Blood) was 1.08 %ID/g and the “Ratio Tumor: Blood” value ([2]; 1 h) was 31.30. For the same compound, the “Ratio Tumor: Bone” value ([2]; 1 h) was 37.23, the “Ratio Tumor: Liver” value ([2]; 1 h) was 15.41 and the “Ratio Tumor: Lung” value ([2]; 1 h) was 15.76. For the same compound, the “Ratio Tumor: Muscle” value ([2]; 1 h) was 180.39, the “Ratio Tumor: Spleen” value ([2]; 1 h) was 19.78 and the “Ratio Tumor: Blood” value [2, 5] was 1.74. The “Ratio Tumor: Bone” value [2, 5] was 8.83, the “Ratio Tumor: Liver” value [2, 5] was 2.59 and the “Ratio Tumor: Lung” value [2, 5] was 1.48. For the same compound, the “Ratio Tumor: Muscle” value [2, 5] was 8.71, the “Ratio Tumor: Spleen” value [2, 5] was 3.10 and the “Ratio Tumor: Blood” value ([3]; 1 h) was 5.74. For the same compound, the “Ratio Tumor: Bone” value ([3]; 1 h) was 15.68, the “Ratio Tumor: Liver” value ([3]; 1 h) was 3.31 and the “Ratio Tumor: Lung” value ([3]; 1 h) was 3.71. For the same compound, the “Ratio Tumor: Muscle” value ([3]; 1 h) was 23.74, the “Ratio Tumor: Spleen” value ([3]; 1 h) was 6.62 and the “Ratio Tumor: Blood” value [3, 5] was 1.56. For the same compound, the “Ratio Tumor: Bone” value [3, 5] was 6.16, the “Ratio Tumor: Liver” value [3, 5] was 1.62 and the “Ratio Tumor: Lung” value [3, 5] was 1.36. For the same compound, the “Ratio Tumor: Muscle” value [3, 5] was 7.68, the “Ratio Tumor: Spleen” value [3, 5] was 2.16 and the “Ratio Tumor: Blood” value ([3]; 2h) was 25.33. The “Ratio Tumor: Bone” value ([3]; 2h) was 13.96, the “Ratio Tumor: Liver” value ([3]; 2h) was 1.99 and the “Ratio Tumor: Lung” value ([3]; 2h) was 4.36. The “Ratio Tumor: Muscle” value ([3]; 2h) was 55.01, the “Ratio Tumor: Spleen” value ([3]; 2h) was 5.63 and the “% Intact Peptide” value [4] was greater than 99%.
